For test [1], the system named is Trichophyton mentagrophytes SM-110 strain. The experiment in a line: Evaluation of drug effect on tinea unguium, guinea pig model, present evaluation method. The following applies: two days after last treatment, 30 consecutive days, topical 1% solution 0.1 ml or oral 40 mg/kg; for The number of feet with fungus-negative nail/Total number of infected feet: detection limit 10 CFU/feet. The test is classed as in vivo. How it is done: A fungal solution was prepared in the same manner as in the pretreatment of Comparative Example 1 except for changing Trichophyton mentagrophytes KD-04 strain to Trichophyton mentagrophytes SM-110 strain.
A guinea pig model of tinea unguium and tinea pedis was prepared in the same manner as in the above-mentioned preparation of the guinea pig model in interdigital tinea pedis except for changing male Hartley strain guinea pigs of 7 weeks age to male Hartley strain guinea pigs of 5 weeks age and except that the paper disc and the bandage was removed 21 days after the infection changing from seven days after the infection. The invasion of dermatophytes in plantar skin and nail plate was observed 60 days after the infection.
As test compounds, solutions were prepared by dissolving raw powders of KP-103, amorolfine and terbinafine in a concentration of 1% thereof to mixture solution of polyethylene grycole #400: ethanol (75:25 v/v), respectively. Capsule of terbinafine was prepared by crushing the marketed tablet, suspending in the concentration of 100 mg/ml into Miglyol 812 (available from Mitsuba trade Co., Ltd)with glass homogenizer uniformity, and injecting the resulting suspension into each capsule in the concentration of 40 mg/kg depending on body weight measured on administration day. A solution of KP-103, amorolfine or terbinafine in the amount of 0.1 ml was applied a plantar skin and nail of one foot once a day for 30 consecutive days. In case of terbinafine capsule, one capsule (40 mg/kg) was administered orally.
Animals were sacrificed two days after the last treatment. One hind foot was excised and wiped sufficiently with the cotton sweb containing alcohol. Nails (three in total) of one hind foot was excised and miced by a scissors. It was transferred into glass homogenizer and was homogenized adding 4 ml double-concentration phosphate buffered saline (Phosphate Buffered Salts, available from Takara Shuzo Co., Ltd.) containing 4% of trypsin derived from pig pancreas (available from BIOZYME Laboratories Limited). The reaction was carried out with shaking at 37° C. for one hour. After a centrifugation, the obtaining precipitate was washed three times by centrifuging with phosphate buffered saline in order to remove trypsin. The precipitate was suspended with 4 ml of distilled water and put into dialysis membrane (fractional molecular weight: 12,000–14,000, made of cellulose, available from VISKASE SALES Corporation). Dialysis was carried out into 3 L of distilled water at 4° C. for 14 days. Dialysis water was replaced twice a day 28 times in total. After a centrifugation, 1 ml of phosphate buffered saline was added to the precipitate obtained by removing the supernatant to prepare a suspension. This suspension was defined as stock solution and was diluted by tenfold. To Sabouraud dextrose agar medium (20 ml) containing the antibiotic substance described in Comparative Example 1 were added 100 μl of the stock solution or the dilution. […] The number of fungus-negative feet in the nail was counted. When the colony was appeared on the medium, the number of colonies (CFU) was counted to calculate the number of colonies in the nail of one foot by the dilution rate. After Kruskal Wallis Test was carried out for the number of fungi in the nail, the multiple comparison was carried out based on Tukey method to analysis the significant difference between groups. Those results were shown in FIG. 3 and Table 3 thereof was made. In FIG. 3, the number of CFU in nails in each treated group was plotted and the mean number of CFU was shown by horizontal line and numerical value.
Using the above-mentioned suspension, sufficient removal of the remaining drug was determined by the present evaluation method in the same manner as in Example 2.

Test [2] shares this test system. Nature of the test: Evaluation of drug effect on tinea pedis, guinea pig model, present evaluation method. Format: in vivo. The following applies: two days after last treatment; 30 consecutive days; topical 1% solution 0.1 ml or oral 40 mg/kg; detection limit 20 CFU/feet. How it is done: A fungal solution was prepared in the same manner as in the pretreatment of Comparative Example 1 except for changing Trichophyton mentagrophytes KD-04 strain to Trichophyton mentagrophytes SM-110 strain. A guinea pig model of tinea unguium and tinea pedis was prepared in the same manner as in the above-mentioned preparation of the guinea pig model in interdigital tinea pedis except for changing male Hartley strain guinea pigs of 7 weeks age to male Hartley strain guinea pigs of 5 weeks age and except that the paper disc and the bandage was removed 21 days after the infection changing from seven days after the infection. The invasion of dermatophytes in plantar skin and nail plate was observed 60 days after the infection. As test compounds, solutions were prepared by dissolving raw powders of KP-103, amorolfine and terbinafine in a concentration of 1% thereof to mixture solution of polyethylene grycole #400: ethanol (75:25 v/v), respectively. Capsule of terbinafine was prepared by crushing the marketed tablet, suspending in the concentration of 100 mg/ml into Miglyol 812 (available from Mitsuba trade Co., Ltd)with glass homogenizer uniformity, and injecting the resulting suspension into each capsule in the concentration of 40 mg/kg depending on body weight measured on administration day. A solution of KP-103, amorolfine or terbinafine in the amount of 0.1 ml was applied a plantar skin and nail of one foot once a day for 30 consecutive days. In case of terbinafine capsule, one capsule (40 mg/kg) was administered orally. Skin pieces of hind feet were excised from each animal described in Example 4. A removal of the drug and a determination of the remaining drug were carried out in the same as in Example 2 except that dialysis for removing the drug carried out for 3 days and that dialysis water was changed six times in total. The sufficient removal of the remaining drug was confirmed. Then the drug effect was evaluated in the same manner as in Example 4 (detection limit: 20 CFU/feet). Those results were shown in FIG. 4 and Table 4 thereof was made. In FIG. 4, the number of CFU in the skin in each treated group was plotted and the mean number of CFU was shown by horizontal line and numerical value.

Test [3] has as its system Trichophyton mentagrophytes KD-04 strain. Nature of the test: Conventional method for evaluating drug effect, guinea pig model of interdigital type of tinea pedis. Format: in vivo. The following applies: for The number of fungus-negative feet/Total number of infected feet: 1% solution 0.1 ml topical once a day for 10 days, lanoconazole as marketed Astat solution; for The number of fungus-negative feet/Total number of infected feet, Conventional Method: five days after the last treatment, left feet, 1% solutions in PEG #400:ethanol vehicle. How it is done: (§1) Millipore Filter (made by Millipore Corporation, HA, diameter 47 mm, 0.45 μm) was placed on Brain-Heart-infusion agar medium (available from Nissui Pharmaceutical Co., LTD.), and 10^6 cells of microcondium of Trichophyton mentagrophytes KD-04 strain were applied thereon. The cultivation was carried out at 30° C. under 17% of CO2 for 7 days. After the cultivation, just amount of physiological saline containing 0.05% of Tween 80 was dropped on the filter and arthroconidia were collected using a platinum loop. After a hyphal mass was removed by a filtration with a sterile gauze, the number of arthroconidia in the filtrate was calculated by hemocytometer to adjust in concentration of 1×10^8 arthroconidia/ml to obtain a fungal inocula.
(§2) A guinea pig model of interdigital type of tinea pedis was prepared according to the method of Arika et al (Antimicrobial Agents and Chemotherapy, 36: 2523–2525, 1992). Concretely, in two hind foots of male Hartley strain guinea pigs of 7 weeks age, the interdigital skin was lightly abraded with sandpaper. A paper disc (AAdisc available from Whatmen International Ltd cut in 8×4 mm) moisten with the above-mentioned solution of the inoculated organism was applied onto the region between the interdigital toes of the hind feet and fixed using Self-adhering-Foam Pad (Restone 1560M; available from 3M) and adhesive stretch bandage (ELASTPORE; available from Nichiban Co., Ltd). The paper disc and the bandage were removed seven days after of the infection.
(§3) A marketed 1% lanoconazole solution (commercial name: Astat (trade name) solution) and a solution in which KP-103 was solved in a concentration of 1% in polyethylene grycole #400: ethanol (75:25 v/v) mixture were used as test substance. Each solution in amount of 0.1 ml was applied to the plantar skin once a day from 10 days after the infection for 10 days.
The conventional method was described as follows. For the infected control group without an application of the drug, the KP-103-treated group and the lanoconazole-treated group, 10 guinea pigs (hereinafter referred to “animal”) were employed, respectively. Animals of each group were sacrificed two days after and 30 days after the last treatment. Their two hind feet were excised and wiped with the cotton sweb containing alcohol sufficiently. A skin of whole sole was excised and cut into 15 skin pieces in total including 12 skin pieces from plantar parts and 3 skin pieces from an interdigital part. Each skin pieces were placed on 20 ml of Sabouraud dextrose agar medium (available from Difco laboratories) containing 50 μg of chloramphenicol (available from Wako Pure Chemical Industries, Ltd.), 100 μg of gentamicin (available from Schering-Plough Corporation), 50 μg of 5-fluorocytosine (available from Wako Pure Chemical Industries, Ltd.) and 1 mg of cycloheximide (available from nacalai tesque, Inc.) per ml. An antibiotic substance added to the medium was set to a condition which enable bacteria not to grow and which enable fungi to grow without problem. […] In the evaluation of the effect 30 days after last treatment, two days after the last treatment the treated feet were wiped with a cotton swab containing alcohol and fixed with the bandage in order to prevent a reinfection. The bandage was changed once a week.
A model was prepared according to Comparative Example 1. Lanoconazole being a test compound was used for a therapeutic experience as 1% solution with the same vehicle as KP-103. For the infected control group without an application of a drug, the KP-103-treated group and the lanoconazole-treated group, 20 animals were employed, respectively. The two hind feet were excised from each animal five days after the last treatment in the same manner as in Comparative Example 1. A total of 20 light feet were used for an evaluation by the conventional method, and a total of 20 right feet were used in the present evaluation method. […]

Test [4] shares this test system. The experiment in a line: Present evaluation method (drug removed by dialysis, viable fungus detected), guinea pig model of interdigital tinea pedis. The following applies: five days after the last treatment; for The number of fungus-negative feet/Total number of infected feet, Present evaluation method: right feet, drug removed by dialysis, detection limit 10 CFU/feet. The test is classed as in vivo. How it is done: as §1, §2, §3
A model was prepared according to Comparative Example 1. Lanoconazole being a test compound was used for a therapeutic experience as 1% solution with the same vehicle as KP-103. […]

A further test relates to Trichophyton. Nature of the test: In vitro antifungal activity against dermatophytes. The test is classed as cell-based.
For a further test, the system named is fungus. The following applies: 20 feet, cited from earlier work.
Where [5] appears, read: 30 days after the last treatment.
The mark [6] stands for this setting: two days after the last treatment.

The structures appear in SMILES notation. Marks after values point to notes of the source that are not given here.

As for `CCC(C)(C)c1ccc(CC(C)CN2C[C@@H](C)O[C@@H](C)C2)cc1` (stereo partly shown) [Amorolfine solution, amorolfine], in test [1], the “Mean number of fungal cells in the nail (Log CFU ± SD)” value came out at 3.26 ± 0.54 Log CFU and the “The number of feet with fungus-negative nail/Total number of infected feet” value is given as 0/10. For the same compound, in test [2], the “Mean number of fungal cells in the skin (Log CFU ± SD)” value is reported as 1.74 ± 0.45 Log CFU and the “The number of feet with fungus-negative skin/Total number of infected feet” value is 4/10.

Take `C=C1CCN([C@H](C)[C@](O)(Cn2cncn2)c2ccc(F)cc2F)CC1` [KP-103, (2R,3R)-2-(2,4-difluorophenyl)-3-(4-methylenepiperidine-1-yl)-1-(1H-1,2,4-triazole-1-yl)butane-2-ol]: the “The number of fungus-negative feet/Total number of infected feet” value in test [3] (setting [5]) is listed as 16/20. Besides, the “The number of fungus-negative feet/Total number of infected feet, Conventional Method” value in test [3] is recorded as 19/20. Further, the “The number of fungus-negative feet/Total number of infected feet” value in test [3] (setting [6]) is 20/20. In test [4], the “rate of a fungus-negative foot evaluated by the present evaluation method” value is 85% and the “The number of fungus-negative feet/Total number of infected feet, Present evaluation method” value is reported as 17/20. Besides, in test [1], the “Mean number of fungal cells in the nail (Log CFU ± SD)” value is 2.20 ± 0.56 Log CFU and the “The number of feet with fungus-negative nail/Total number of infected feet” value was 0/10. In addition, in test [2], the “Mean number of fungal cells in the skin (Log CFU ± SD)” value is on record as <1.3** Log CFU and the “The number of feet with fungus-negative skin/Total number of infected feet” value is recorded as 10/10**.

For the compound `N#C/C(=C1/SCC(c2ccccc2Cl)S1)n1ccnc1` (stereo not shown) [Lanoconazole, lanoconazole], the “The number of fungus-negative feet/Total number of infected feet” value in test [3] (setting [5]) is given as 9/20; in test [3] (setting [6]), 20/20. Further, the “The number of fungus-negative feet/Total number of infected feet, Conventional Method” value in test [3] is given as 20/20. In test [4], the “The number of fungus-negative feet/Total number of infected feet, Present evaluation method” value is reported as 3/20. Further, the “growth inhibitory concentration against Trichophyton” value in the test with Trichophyton was determined as 15.6 ng/mL. For the same compound, the “in vitro activity against Trichophyton relative to KP-103” value with Trichophyton is listed as “eight-fold more active than KP-103”. Further, in the test with fungus (2 days after the last treatment), the fungus-negative feet result is reported as “all feet out of 20 feet”. The feet with relapse with fungus (setting [5]) is given as 11 out of 20.

Consider `CN(C/C=C/C#CC(C)(C)C)Cc1cccc2ccccc12` [Terbinafine solution, terbinafine], for which, in test [1], the “Mean number of fungal cells in the nail (Log CFU ± SD)” value turned out to be 3.21 ± 0.47 Log CFU and the “The number of feet with fungus-negative nail/Total number of infected feet” value is reported as 0/10. In test [2], the “Mean number of fungal cells in the skin (Log CFU ± SD)” value is on record as <1.3** Log CFU and the “The number of feet with fungus-negative skin/Total number of infected feet” value was 10/10**.

(Values after patent US7214506B2, “Method for treating onychomycosis” (Kaken Pharmaceutical Co., Ltd., priority 1999, dated 2007).)
